In PubChem BioAssay AID256 (DTP/NCI, 2004):
Several values for one entry are separate records, joined by “and”; a condition that tells them apart may be missing. Identical values can stand only once. Toxic doses and inconclusive results are not listed. The calls were made as follows: active = survival T/C of 150% or more; inactive = T/C below 125% in these data.

Tested on: CD2F1 mice, L1210 leukemia ip, survival T/C
Assay: NCI In Vivo Anticancer Drug Screen. Data for tumor model L1210 Leukemia (intraperitoneal) in CD2F1 (CDF1) mice
Settings: higher = longer survival
In short: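 Tumor-bearing mice (transplanted tumor) were split into treated and vehicle control groups, and the measured endpoint of each treated group was divided by that of its vehicle controls.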

[1] = endpoint: mean survival time, dose: 25.0 mg/kg/injection, schedule: Q04DX002 (ip), vehicle: saline with Tween-80
[2] = endpoint: mean survival time, dose: 50.0 mg/kg/injection, schedule: Q04DX002 (ip), vehicle: saline with Tween-80
[3] = endpoint: mean survival time, dose: 100.0 mg/kg/injection, schedule: Q04DX002 (ip), vehicle: saline with Tween-80
[4] = endpoint: mean survival time, dose: 100.0 mg/kg/injection, schedule: Q01DX009 (ip), vehicle: saline with Tween-80
[5] = endpoint: mean survival time, dose: 50.0 mg/kg/injection, schedule: Q01DX001 (ip), vehicle: saline with Tween-80
[6] = endpoint: mean survival time, dose: 100.0 mg/kg/injection, schedule: Q01DX001 (ip), vehicle: saline with Tween-80
[7] = endpoint: mean survival time, dose: 200.0 mg/kg/injection, schedule: Q01DX009 (ip), vehicle: saline with Tween-80
[8] = endpoint: mean survival time, dose: 400.0 mg/kg/injection, schedule: Q01DX009 (ip), vehicle: saline with Tween-80
[9] = endpoint: mean survival time, dose: 50.0 mg/kg/injection, schedule: Q01DX009 (ip), vehicle: saline with Tween-80
[10] = endpoint: mean survival time, dose: 100.0 mg/kg/injection, schedule: Q04DX003 (ip), vehicle: saline with Tween-80
[11] = endpoint: mean survival time, dose: 200.0 mg/kg/injection, schedule: Q04DX003 (ip), vehicle: saline with Tween-80
[12] = endpoint: mean survival time, dose: 400.0 mg/kg/injection, schedule: Q04DX003 (ip), vehicle: saline with Tween-80

Measured: T/C

c1ccc(C[S][Sn]([c]2ccccc2)([c]2ccccc2)[c]2ccccc2)cc1
inactive: [1] 91 % of control | [2] 102 % of control | [3] 94 % of control

O=C1C(O)=C(c2ccccc2C(=O)O)C(=O)C(O)=C1c1ccccc1C(=O)O
inactive: [4] 92 % of control

Nc1n[nH]c(=S)n1-c1ccc(Cl)cc1
inactive: endpoint: mean survival time, dose: 100.0 mg/kg/injection, schedule: Q01DX009 (ip), vehicle: acetone 97 % of control | endpoint: mean survival time, dose: 200.0 mg/kg/injection, schedule: Q01DX009 (ip), vehicle: acetone 101 % of control | endpoint: mean survival time, dose: 400.0 mg/kg/injection, schedule: Q01DX009 (ip), vehicle: acetone 106 % of control

[C-]#[O+].[Cl][Sn]([Cl])[Cl].[Cl][Sn]([Cl])[Cl].[Pt].c1ccncc1
inactive: endpoint: median survival time, dose: 3.12 mg/kg/injection, schedule: Q04DX003 (ip), vehicle: saline with Tween-80 113 % of control | endpoint: median survival time, dose: 6.25 mg/kg/injection, schedule: Q04DX003 (ip), vehicle: saline with Tween-80 110 % of control | endpoint: median survival time, dose: 12.5 mg/kg/injection, schedule: Q04DX003 (ip), vehicle: saline with Tween-80 110 % of control | endpoint: median survival time, dose: 25.0 mg/kg/injection, schedule: Q04DX003 (ip), vehicle: saline with Tween-80 102 % of control | endpoint: median survival time, dose: 50.0 mg/kg/injection, schedule: Q04DX003 (ip), vehicle: saline with Tween-80 108 % of control | endpoint: median survival time, dose: 100.0 mg/kg/injection, schedule: Q04DX003 (ip), vehicle: saline with Tween-80 108 % of control | endpoint: median survival time, dose: 200.0 mg/kg/injection, schedule: Q04DX003 (ip), vehicle: saline with Tween-80 120 % of control

Nc1c(Cl)cc2c(c1Cl)Cc1c-2cc(Br)c(N)c1Br
inactive: endpoint: mean survival time, dose: 12.5 mg/kg/injection, schedule: Q01DX001 (ip), vehicle: saline with Tween-80 100 % of control | endpoint: mean survival time, dose: 25.0 mg/kg/injection, schedule: Q01DX001 (ip), vehicle: saline with Tween-80 97 % of control | [5] 97 % of control | [6] 101 % of control

O=C(O)CC12CCCCC1CCCC2 (configuration not stated)
inactive: endpoint: mean survival time, dose: 100.0 mg/kg/injection, schedule: Q04DX003 (ip), vehicle: acetone 95 % of control | endpoint: mean survival time, dose: 200.0 mg/kg/injection, schedule: Q04DX003 (ip), vehicle: acetone 91 % of control | endpoint: mean survival time, dose: 400.0 mg/kg/injection, schedule: Q04DX003 (ip), vehicle: acetone 90 % of control

O=C(Nc1ccccc1)OCC1CC2CCC1C2 (configuration not stated)
inactive: [4] 87 % of control | [7] 93 % of control | [8] 95 % of control

C=C(C)/C([O-])=N/[N+](C)(C)CC(O)CCCCCCCCCCCC (configuration not stated)
inactive: endpoint: mean survival time, dose: 25.0 mg/kg/injection, schedule: Q01DX001 (ip), vehicle: saline 96 % of control and 97 % of control | endpoint: mean survival time, dose: 50.0 mg/kg/injection, schedule: Q01DX001 (ip), vehicle: saline 97 % of control and 100 % of control | [9] 94 % of control | endpoint: mean survival time, dose: 100.0 mg/kg/injection, schedule: Q01DX001 (ip), vehicle: saline 96 % of control and 97 % of control | [4] 94 % of control | endpoint: mean survival time, dose: 200.0 mg/kg/injection, schedule: Q01DX001 (ip), vehicle: saline 93 % of control and 100 % of control | [7] 97 % of control

CC(C)(C)C1SCC(O)CS1 (configuration not stated)
inactive: endpoint: mean survival time, dose: 12.5 mg/kg/injection, schedule: Q04DX002 (ip), vehicle: saline with Tween-80 105 % of control | [1] 97 % of control | [2] 97 % of control

O=C1NC(=O)c2cccc3cccc1c23
inactive: [4] 100 % of control | [10] 98 % of control | [7] 96 % of control | [11] 102 % of control | [8] 94 % of control | [12] 100 % of control

O=c1oc2ccc(Cl)cc2c(Nc2ccccc2)c1Cl
inactive: [6] 93 % of control | endpoint: mean survival time, dose: 200.0 mg/kg/injection, schedule: Q01DX001 (ip), vehicle: saline with Tween-80 93 % of control | endpoint: mean survival time, dose: 400.0 mg/kg/injection, schedule: Q01DX001 (ip), vehicle: saline with Tween-80 90 % of control

Cc1ccc(NC(=O)OCCOc2ccc([N+](=O)[O-])cc2)cc1C
inactive: [9] 108 % of control | [4] 92 % of control | [7] 92 % of control

O=C(/C=C\c1ccc(Cl)c(Cl)c1)/C=C/c1ccc(Cl)c(Cl)c1
inactive: [1] 95 % of control | [2] 87 % of control | [3] 106 % of control

CC(=O)Nc1ccc([N+](=O)[O-])cc1[N+](=O)[O-]
inactive: [10] 100 % of control | [11] 102 % of control

CC1(C)C(CC(=O)O)CC1C(=O)O (configuration not stated)
inactive: [4] 98 % of control | [10] 100 % of control | [7] 98 % of control | [11] 96 % of control | [12] 100 % of control

C1=C(c2ccccc2)NN=C(c2ccccc2)C1c1ccccc1 (configuration not stated)
inactive: endpoint: mean survival time, dose: 1.56 mg/kg/injection, schedule: Q01DX001 (ip), vehicle: saline with Tween-80 103 % of control | endpoint: mean survival time, dose: 1.56 mg/kg/injection, schedule: Q01DX009 (ip), vehicle: saline with Tween-80 98 % of control | endpoint: mean survival time, dose: 3.13 mg/kg/injection, schedule: Q01DX001 (ip), vehicle: saline with Tween-80 101 % of control | endpoint: mean survival time, dose: 3.13 mg/kg/injection, schedule: Q01DX009 (ip), vehicle: saline with Tween-80 102 % of control | endpoint: mean survival time, dose: 6.25 mg/kg/injection, schedule: Q01DX001 (ip), vehicle: saline with Tween-80 94 % of control | endpoint: mean survival time, dose: 6.25 mg/kg/injection, schedule: Q01DX009 (ip), vehicle: saline with Tween-80 98 % of control | [5] 87 % of control

Cc1cc2c(C(C)C)c(O)c(O)c(C=O)c2c(O)c1-c1c(C)cc2c(C(C)C)c(O)c(O)c(C=O)c2c1O
inactive: endpoint: median survival time, dose: 6.25 mg/kg/injection, schedule: Q01DX009 (ip), vehicle: saline with Tween-80 110 % of control | endpoint: median survival time, dose: 12.5 mg/kg/injection, schedule: Q01DX009 (ip), vehicle: saline with Tween-80 101 % of control

CCC(CC)(C(N)=O)C(N)=O
inactive: [3] 108 % of control | endpoint: mean survival time, dose: 200.0 mg/kg/injection, schedule: Q04DX002 (ip), vehicle: saline with Tween-80 100 % of control | endpoint: mean survival time, dose: 400.0 mg/kg/injection, schedule: Q04DX002 (ip), vehicle: saline with Tween-80 100 % of control

CC(=O)CC(=O)c1ccccc1.CC(=O)CC(=O)c1ccccc1.CC(=O)CC(=O)c1ccccc1.[Tb]
inactive: [10] 93 % of control | [11] 91 % of control | [12] 88 % of control

C1=C(c2ccccc2)CC(/C=C/c2ccccc2)(c2ccccc2)C1c1ccccc1 (configuration not stated)
inactive: endpoint: mean survival time, dose: 25.0 mg/kg/injection, schedule: Q01DX009 (ip), vehicle: saline with Tween-80 92 % of control | [9] 98 % of control | [4] 90 % of control

Cc1cc(C)c(C(=O)CCCC(=O)O)c(C)c1
inactive: [10] 94 % of control | [11] 92 % of control

O=C(O)C(=O)O.[NH-]C(c1ccccc1)C([NH-])c1ccccc1.[Pt+2] (configuration not stated)
inactive: endpoint: mean survival time, dose: 6.25 mg/kg/injection, schedule: Q04DX003 (ip), vehicle: saline with Tween-80 118 % of control | endpoint: mean survival time, dose: 12.5 mg/kg/injection, schedule: Q04DX003 (ip), vehicle: saline with Tween-80 124 % of control

O=C1N(CCO)CNC1(c1ccccc1)c1ccccc1
inactive: endpoint: mean survival time, dose: 50.0 mg/kg/injection, schedule: Q04DX003 (ip), vehicle: saline with Tween-80 94 % of control | [10] 107 % of control | [11] 98 % of control

CCN=NNc1ccc(C)cc1
inactive: [9] 114 % of control | [4] 106 % of control | [10] 102 % of control | [11] 100 % of control

NNc1ccc(-c2ccc(NN)cc2)cc1
inactive: [4] 101 % of control | [7] 95 % of control | [8] 96 % of control

CCOC(=O)C1CC1C(=O)OC (configuration not stated)
inactive: [9] 90 % of control | [4] 88 % of control | [7] 92 % of control

O=C(Nc1ccc(Cl)c(C(F)(F)F)c1)Nc1cc(Cl)ccc1Sc1cc(Cl)c(Cl)cc1S(=O)(=O)O
inactive: endpoint: mean survival time, dose: 100.0 mg/kg/injection, schedule: Q01DX001 (ip), vehicle: saline sonified 102 % of control | [4] 100 % of control | endpoint: mean survival time, dose: 200.0 mg/kg/injection, schedule: Q01DX001 (ip), vehicle: saline sonified 93 % of control | [7] 105 % of control | endpoint: mean survival time, dose: 400.0 mg/kg/injection, schedule: Q01DX001 (ip), vehicle: saline sonified 93 % of control | [8] 102 % of control

CC(C)CCCC(C)C1CCC2C3CC=C4CC(OCCO)CCC4(C)C3CCC12C (configuration not stated)
inactive: endpoint: mean survival time, dose: 25.0 mg/kg/injection, schedule: Q01DX009 (ip), vehicle: other 104 % of control | endpoint: mean survival time, dose: 50.0 mg/kg/injection, schedule: Q01DX009 (ip), vehicle: other 101 % of control | endpoint: mean survival time, dose: 100.0 mg/kg/injection, schedule: Q01DX009 (ip), vehicle: other 87 % of control

CN(C)C=Nc1ccc(Cl)c(Cl)c1
inactive: endpoint: mean survival time, dose: 25.0 mg/kg/injection, schedule: Q04DX003 (ip), vehicle: saline 98 % of control | endpoint: mean survival time, dose: 50.0 mg/kg/injection, schedule: Q04DX003 (ip), vehicle: saline 92 % of control
